In patent US4292317A, “1,4-Dihydro-quinoline-3-carboxylic acid derivatives, process for their preparation and compositions containing them” (Laboratorie Roger Bellon, priority 1977, dated 1981):
≈ marks a conversion by molar mass, not a printed value.

What was measured:
Arizona 6.211 = test: M.I.C. in vitro, nutrient agar dilution; assay type: cell-based; details: 18 h; Table III; Arizona 6.211; read-out: M.I.C.
Protocol: (§1) After sterilisation at 120° C., the pH was 6.8.
(§2) The minimum inhibitory concentrations (M.I.C.) were determined by dilution of the test compounds in this mixture, the concentration ranging from 0.05 to 100 μg/cm^3 in a geometric progression with a factor of 2.
(§3) The inoculation of the dishes was carried out by means of a multiple inoculator with 10^-3 dilutions of 18 hour old broth cultures.
(§4) The dishes were placed in an oven at 37° C. and the readings were taken afer an incubation time of 18 hours. The M.I.C. was taken as the lowest concentration which inhibited a culture.

B. subtilis = test: M.I.C. in vitro, nutrient agar dilution; assay type: cell-based; details: Bacillus subtilis, 18 h; Table III; B. Subtilis; read-out: M.I.C.
Protocol: as §1, §2, §3, §4

Bord. bronchis. 4.617 = test: M.I.C. in vitro, nutrient agar dilution; assay type: cell-based; details: 18 h; Table III; Bord. bronchis. 4.617; read-out: M.I.C.
Protocol: as §1, §2, §3, §4

Esch. coli 111 B4 = test: M.I.C. in vitro, nutrient agar dilution; assay type: cell-based; details: Escherichia coli, 18 h; Table III; Esch. coli 111 B4
Protocol: as §1, §2, §3, §4

Esch. coli 54.127 O.M.S. = test: M.I.C. in vitro, nutrient agar dilution; assay type: cell-based; details: Escherichia coli, 18 h; Table III; Esch. coli 54.127 O.M.S.; read-out: M.I.C.
Protocol: as §1, §2, §3, §4

Esch. coli 95 I.S.M. = test: M.I.C. in vitro, nutrient agar dilution; assay type: cell-based; details: Escherichia coli, 18 h; Table III; Esch. coli 95 I.S.M.; read-out: M.I.C.
Protocol: as §1, §2, §3, §4

Klebs. pneum. 10.031 = test: M.I.C. in vitro, nutrient agar dilution; assay type: cell-based; details: 18 h; Table III; Klebs. pneum. 10.031; read-out: M.I.C.
Protocol: as §1, §2, §3, §4

Pr. mirabilis Nig = test: M.I.C. in vitro, nutrient agar dilution; assay type: cell-based; details: Proteus mirabilis, 18 h; Table III; Pr. mirabilis Nig; read-out: M.I.C.
Protocol: as §1, §2, §3, §4

Pr. morganii A.236 = test: M.I.C. in vitro, nutrient agar dilution; assay type: cell-based; details: Morganella morganii, 18 h; Table III; Pr. morganii A. 236; read-out: M.I.C.
Protocol: as §1, §2, §3, §4

Pr. vulgaris 12-53 = test: M.I.C. in vitro, nutrient agar dilution; assay type: cell-based; details: Proteus vulgaris, 1253, 18 h; Table III; Pr. vulgaris 12-53; read-out: M.I.C.
Protocol: as §1, §2, §3, §4

Providentia 0223 = test: M.I.C. in vitro, nutrient agar dilution; assay type: cell-based; details: 18 h; Table III; Providentia 0223; read-out: M.I.C.
Protocol: as §1, §2, §3, §4

Ps. aeruginosa 72.345 = test: M.I.C. in vitro, nutrient agar dilution; assay type: cell-based; details: Pseudomonas aeruginosa, 18 h; Table III; Pd. aeruginosa 72.345; read-out: M.I.C.
Protocol: as §1, §2, §3, §4

Ps. aeruginosa A.22 = test: M.I.C. in vitro, nutrient agar dilution; assay type: cell-based; details: Pseudomonas aeruginosa, 18 h; Table III; Ps. aeruginosa A.22; read-out: M.I.C.
Protocol: as §1, §2, §3, §4

S. enteritidis Danysz = test: M.I.C. in vitro, nutrient agar dilution; assay type: cell-based; details: Salmonella enterica, 18 h; Table III; S. enteritidis Danysz; read-out: M.I.C.
Protocol: as §1, §2, §3, §4

S. oranienburg 1066 = test: M.I.C. in vitro, nutrient agar dilution; assay type: cell-based; details: Salmonella enterica, 18 h; Table III; S. oranienburg 1066; read-out: M.I.C.
Protocol: as §1, §2, §3, §4

Serratia = test: M.I.C. in vitro, nutrient agar dilution; assay type: cell-based; details: 18 h, Table III, read-out: M.I.C.
Protocol: as §1, §2, §3, §4

Sh. sonnei I.P.S. = test: M.I.C. in vitro, nutrient agar dilution; assay type: cell-based; details: Shigella sonnei, 18 h
Protocol: as §1, §2, §3, §4

Staph. 209 P = test: M.I.C. in vitro, nutrient agar dilution; assay type: cell-based; details: 18 h; Table III; Staph. 209 P; read-out: M.I.C.
Protocol: as §1, §2, §3, §4

Staph. 9.144 = test: M.I.C. in vitro, nutrient agar dilution; assay type: cell-based; details: 18 h; Table III; Staph. 9.144; read-out: M.I.C.
Protocol: as §1, §2, §3, §4

Strepto A 561 = test: M.I.C. in vitro, nutrient agar dilution; assay type: cell-based; details: 18 h; Table III; Strepto A 561
Protocol: as §1, §2, §3, §4

Strepto D.M. 19 = test: M.I.C. in vitro, nutrient agar dilution; assay type: cell-based; details: 18 h; Table III; Strepto D.M. 19; read-out: M.I.C.
Protocol: as §1, §2, §3, §4

Salm. typhi 0901 = test: microbe, parasite or virus in culture; assay type: cell-based; details: Salmonella enterica, 18 h; Table III; Salm. typhi 0901
Protocol: as §1, §2, §3, §4

Escherichia coli P 5101 [1] = test: Systemic infection in mice; assay type: in vivo; details: P5101, po, 168 h, mice, p.o. at infection and 6 hours later, E. coli P 5101, 7 days
Protocol: (§5) The activity of the compounds according to the invention against systemic infections in mice, caused by Staphylococcus 50,774, Streptococcus pyogenes A 65, Pseudomonas aeruginosa No. 12 and Escherichia coli P 5101, has been studied.
(§6) The infections were set up by intraperitoneal injection of a suspension of the bacterial culture corresponding to the germ studied. The products were administered orally at the time of injection, and 6 hours later. […] Aureus and for 7 days for the other germs.
(§7) Oxolinic acid was used as the reference substance.

[2] = test system: Pseudomonas aeruginosa No. 12; test: Systemic infection in mice; assay type: in vivo; details: po, 168 h, mice, p.o. at infection and 6 hours later, P. aeruginosa No. 12, 7 days
Protocol: as §5, §6, §7

Staph. aureus 50,774 [3] = test: Systemic infection in mice; assay type: in vivo; details: Staphylococcus aureus, po, 336 h, mice, p.o. at infection and 6 hours later, Staph. aureus 50,774, 14 days
Protocol: as §5, §6, §7

Strept. pyogenes A. 65 [4] = test: Systemic infection in mice; assay type: in vivo; details: Streptococcus pyogenes, po, 168 h, mice, p.o. at infection and 6 hours later, Strept. pyogenes A. 65, 7 days
Protocol: as §5, §6, §7

Escherichia coli P 5101 [5] = test: M.I.C. for germ used in experimental infection; assay type: cell-based; details: P5101, 18 h, Table 4, E. coli P 5101, read-out: M.I.C.
Protocol: as §1, §2, §3, §4

[6] = test system: Pseudomonas aeruginosa No. 12; test: M.I.C. for germ used in experimental infection; assay type: cell-based; details: 18 h, Table 4, P. aeruginosa No. 12, read-out: M.I.C.
Protocol: as §1, §2, §3, §4

Staph. aureus 50,774 [7] = test: M.I.C. for germ used in experimental infection; assay type: cell-based; details: Staphylococcus aureus, 18 h; Table 4; Staph. aureus 50,774; read-out: M.I.C.
Protocol: as §1, §2, §3, §4

Strept. pyogenes A. 65 [8] = test: M.I.C. for germ used in experimental infection; assay type: cell-based; details: Streptococcus pyogenes, 18 h; Table 4; Strept. pyogenes A. 65; read-out: M.I.C.
Protocol: as §1, §2, §3, §4

SMILES: CCn1cc(C(=O)O)c(=O)c2cc(F)c(N3CCNCC3)cc21 [Example 22, 1-Ethyl-6-fluoro-4-oxo-7-piperazinyl-1,4-dihydro-quinoline-3-carboxylic acid]
- MIC (Arizona 6.211): 0.2 µg/mL (≈ 0.626 µM)
- MIC (B. subtilis): 0.2 µg/mL (≈ 0.626 µM)
- MIC (Bord. bronchis. 4.617): 6.25 to 12.5 µg/mL (≈ 19.6 to 39.1 µM)
- MIC (Esch. coli 111 B4): 0.1 to 0.2 µg/mL (≈ 0.313 to 0.626 µM)
- MIC (Esch. coli 54.127 O.M.S.): 0.2 µg/mL (≈ 0.626 µM)
- MIC (Esch. coli 95 I.S.M.): 0.2 µg/mL (≈ 0.626 µM)
- MIC (Klebs. pneum. 10.031): 0.1 to 0.2 µg/mL (≈ 0.313 to 0.626 µM)
- MIC (Pr. mirabilis Nig): 0.1 to 0.2 µg/mL (≈ 0.313 to 0.626 µM)
- MIC (Pr. morganii A.236): 0.05 µg/mL (≈ 0.157 µM)
- MIC (Pr. vulgaris 12-53): 0.05 µg/mL (≈ 0.157 µM)
- MIC (Providentia 0223): 0.8 to 1.6 µg/mL (≈ 2.51 to 5.01 µM)
- MIC (Ps. aeruginosa 72.345): 0.4 to 0.8 µg/mL (≈ 1.25 to 2.51 µM)
- MIC (Ps. aeruginosa A.22): 0.4 to 0.8 µg/mL (≈ 1.25 to 2.51 µM)
- MIC (S. enteritidis Danysz): 0.2 µg/mL (≈ 0.626 µM)
- MIC (S. oranienburg 1066): 6.2 µg/mL (≈ 19.4 µM)
- MIC (Serratia): 1 to 6.2 µg/mL (≈ 3.13 to 19.4 µM)
- MIC (Sh. sonnei I.P.S.): 0.01 to 0.02 µg/mL (≈ 0.0313 to 0.0626 µM)
- MIC (Staph. 209 P): 0.2 to 0.4 µg/mL (≈ 0.626 to 1.25 µM)
- MIC (Staph. 9.144): 0.2 to 0.4 µg/mL (≈ 0.626 to 1.25 µM)
- MIC (Strepto A 561): 50 µg/mL (≈ 157 µM)
- MIC (Strepto D.M. 19): 1.6 to 3.1 µg/mL (≈ 5.01 to 9.71 µM)
- MIC (Salm. typhi 0901): 0.05 to 0.2 µg/mL (≈ 0.157 to 0.626 µM)
- ED50 (Escherichia coli P 5101 [1]; read-out: ED50): 4 mg/kg
- ED90 (Escherichia coli P 5101 [1]; read-out: ED90): 10.4 mg/kg
- ED50 ([2]; read-out: ED50): 17.7 mg/kg
- ED90 ([2]; read-out: ED90): 25.9 mg/kg
- ED50 (Staph. aureus 50,774 [3]; read-out: ED50): 20.6 mg/kg
- ED90 (Staph. aureus 50,774 [3]; read-out: ED90): 44.1 mg/kg
- ED50 (Strept. pyogenes A. 65 [4]; read-out: ED50): > 100 mg/kg
- ED90 (Strept. pyogenes A. 65 [4]; read-out: ED90): > 100 mg/kg
- MIC (Escherichia coli P 5101 [5]): 0.1 µg/mL (≈ 0.313 µM)
- MIC [6]: 0.78 µg/mL (≈ 2.44 µM)
- MIC (Staph. aureus 50,774 [7]): 0.78 µg/mL (≈ 2.44 µM)
- MIC (Strept. pyogenes A. 65 [8]): 1.56 µg/mL (≈ 4.89 µM)
